Data set [1] deals with T1, peripheral-type benzodiazepine receptors (PBR or p sites) (Rattus norvegicus, UniProt P16257).
T1 construct: After decapitation, the kidney is removed and the tissue is homogenized; from tissue; host or cells: kidney membrane homogenate of male Sprague-Dawley rats
Briefly: Binding of [3H]Ro5-4864 to peripheral-type benzodiazepine receptors in rat kidney membranes.

Data set [2] concerns motor neurons of the facial nucleus. As to the kind of experiment: Test of survival of the motor neurons after sectioning the facial nerve in rats aged 4 days. The conditions noted are these: immature rats, facial nerve section, treated for 7 days. The class given is in vivo, rat. As for the experimental part: Study of the Neuroprotective Activity
Test of Survival of the Motor Neurons after Sectioning the Facial Nerve in Rats Aged 4 Days
After lesion of the facial nerve in immature rats, the motor neurons of the facial nucleus experience neuronal death by apoptosis. Neuronal survival is evaluated using neuronal counting and histological methods.
Immature rats aged 4 days are anaesthetized with pentobarbital (3 mg/kg by the i.p. route). The right facial nerve is exposed and sectioned at its outlet from the stylomastoid foramen. After waking up, the young rats are returned to their mothers and are treated for 7 days with one or two daily administrations, by the oral or intraperitoneal route, at doses ranging from 1 to 10 mg/kg.
7 days after the lesion, the animals are decapitated and the brains are frozen in isopentane at −40° C. The entire facial […] is cut with a cryostat into sections with a width of 10 μm. The motor neurons are stained with cresyl violet and counted using the Histo™ software (Biocom™)

T1 sequence (P16257 whole entry): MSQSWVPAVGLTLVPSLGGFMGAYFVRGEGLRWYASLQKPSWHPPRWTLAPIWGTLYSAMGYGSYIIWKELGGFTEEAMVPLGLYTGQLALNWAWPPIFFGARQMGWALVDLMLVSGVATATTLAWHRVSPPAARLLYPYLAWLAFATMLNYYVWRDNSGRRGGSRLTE

A word on the melting point: it is the temperature of the solid-liquid transition. The compound `CCN(CC)C(=O)Oc1c2c(nn1-c1ccncc1)CCc1cc(Cl)ccc1-2.Cl` registered a melting point of 250 to 251 °C. In turn, `CC(C)N(C(=O)Oc1nn(-c2ccncc2)c2c1-c1ccc(Cl)cc1CC2)C(C)C.Cl` had a melting point of 146 to 148 °C.

As a reminder, the IC50 is the concentration that inhibits the measured activity by half. Turning to `CCN(CC)C(=O)Oc1c2c(nn1-c1ccccc1)CCc1cc(Cl)ccc1-2` [compound 14], the 50% inhibitory concentration (IC50) in data set [1] worked out at 1.6 nM. For the same compound, the “% increase in the survival of the neurons (10 mg/kg po)” value in data set [2] was 38%. For the compound `CCN(CC)C(=O)Oc1c2c(nn1-c1ccc(F)cc1)CCc1ccccc1-2` [compound 20], the IC50 in data set [1] worked out at 2.8 nM. In addition, in data set [2], the “% increase in the survival of the neurons (10 mg/kg po)” value is 59%. The corresponding values for `CCN(CC)C(=O)Oc1c2c(ccc3cc(Cl)ccc32)nn1-c1ccc(F)cc1` [compound 56] are 1.4 nM and 74%.

The values are drawn from patent US8258168B2, “2H or 3H-benzo[E]indazol-1-YL carbamate derivatives, the preparation and therapeutic use thereof” (Sanofi, priority 2004, dated 2012).
